Reference: ChEMBL document CHEMBL1201862, “PubChem BioAssay data set” (2004)
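48-hour exposure; five concentrations; linearly interpolated endpoints. GI50 is the concentration that inhibits growth by half.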 Active and inactive are the calls of the source. Rule as the data show it: active = GI50 up to about 1.1 µM and inactive = higher.

Columns and labels:
Test in all cases: inhibition of tumour cell growth, NCI panel, 48 h
KM-20L2 = tested on: KM-20L2
M19-MEL = tested on: M19-MEL
DLD-1 = tested on: DLD-1
HOP-18 = tested on: HOP-18
XF498 = tested on: XF498
RXF 631 = tested on: RXF 631
DMS-273 = tested on: DMS-273
LXFL 529 = tested on: LXFL 529

Measured: GI50

COc1ccc(Cc2c(=O)[nH]nc3ccccc23)cc1
inactive: KM-20L2 > 100 µM | M19-MEL > 100 µM | DLD-1 > 100 µM | HOP-18 > 100 µM | XF498 33 µM | RXF 631 > 100 µM | DMS-273 > 100 µM

CCCCCCCCCCC(=O)CC(=O)c1c(O)cccc1O
inactive: KM-20L2 50.2 µM | M19-MEL 25.8 µM | DLD-1 44.6 µM | HOP-18 18.9 µM | XF498 19.5 µM | LXFL 529 36.3 µM | RXF 631 47.3 µM | DMS-273 23.8 µM

O=C1c2ccccc2C(=O)N1/N=C\c1ccc(Br)cc1
inactive: KM-20L2 > 10 µM | M19-MEL > 10 µM | DLD-1 > 10 µM | HOP-18 > 10 µM | XF498 > 10 µM | LXFL 529 > 10 µM | RXF 631 > 10 µM | DMS-273 > 10 µM

NC(=O)NC12CC3CC(CC(F)(C3)C1)C2
inactive: KM-20L2 > 100 µM | M19-MEL > 100 µM | DLD-1 > 100 µM | XF498 > 100 µM | LXFL 529 > 100 µM | RXF 631 > 100 µM | DMS-273 > 100 µM

Cc1ccc(N2C(=O)CS/C2=C(\C#N)c2nc3ccccc3[nH]2)cc1
inactive: KM-20L2 > 100 µM | M19-MEL > 100 µM | DLD-1 > 100 µM | HOP-18 > 100 µM | XF498 > 100 µM | LXFL 529 > 100 µM | DMS-273 > 100 µM

O=C(O)CCC(N/C=C1/N=C(c2ccccc2)OC1=O)C(=O)O (stereo unspecified)
inactive: KM-20L2 > 100 µM | M19-MEL > 100 µM | DLD-1 > 100 µM | HOP-18 36.1 µM | LXFL 529 > 100 µM | RXF 631 > 100 µM | DMS-273 > 100 µM

CSC(=S)c1ccc(C(=S)SC)cc1
inactive: KM-20L2 > 100 µM | M19-MEL > 100 µM | DLD-1 > 100 µM | HOP-18 > 100 µM | XF498 > 100 µM | LXFL 529 > 100 µM | RXF 631 > 100 µM | DMS-273 > 100 µM

Cc1ccccc1/C=N/C12CC3CC(CC(C3)C1)C2
inactive: KM-20L2 > 100 µM | M19-MEL > 100 µM | DLD-1 > 100 µM | HOP-18 > 100 µM | LXFL 529 > 100 µM | RXF 631 > 100 µM | DMS-273 > 100 µM

COc1cccc2c1N[S@](=O)S2
inactive: KM-20L2 > 100 µM | M19-MEL 35.6 µM | DLD-1 72.9 µM | XF498 50.8 µM | LXFL 529 35.3 µM | RXF 631 > 100 µM | DMS-273 > 100 µM

Cn1c(N)nc(=O)c2c1N(C1OC(CO)C(O)C1O)CN2Cc1ccccc1 (stereo unspecified)
inactive: KM-20L2 > 100 µM | M19-MEL > 100 µM | DLD-1 > 100 µM | HOP-18 > 100 µM | XF498 > 100 µM | LXFL 529 > 100 µM | RXF 631 > 100 µM | DMS-273 > 100 µM

Cc1nc2ccc(N)cc2nc1O
inactive: KM-20L2 > 100 µM | M19-MEL > 100 µM | DLD-1 > 100 µM | LXFL 529 > 100 µM | RXF 631 > 100 µM | DMS-273 > 100 µM

O=C(NCC(O)CNC(=O)C(F)(F)F)C(F)(F)F
inactive: KM-20L2 > 100 µM | M19-MEL > 100 µM | DLD-1 > 100 µM | HOP-18 > 100 µM | XF498 > 100 µM | LXFL 529 > 100 µM | DMS-273 > 100 µM

[O-][S+]1c2ccccc2N=C(c2cccs2)CC1c1ccccc1O (stereo unspecified)
inactive: KM-20L2 > 100 µM | M19-MEL > 100 µM | DLD-1 60.8 µM | XF498 32.1 µM | LXFL 529 > 100 µM | RXF 631 > 100 µM

CC(=O)OCC1(C)C(OC(C)=O)CCC2(C)C(CC(OC(C)=O)C3=CCOC3=O)C(O)(CO)CCC12 (stereo unspecified)
inactive: KM-20L2 > 100 µM | M19-MEL > 100 µM | DLD-1 > 100 µM | HOP-18 > 100 µM | XF498 > 100 µM | LXFL 529 > 100 µM | RXF 631 > 100 µM | DMS-273 > 100 µM
